The target of assay [1] is T1, Adrenergic β2 (H292 cells) (Homo sapiens, UniProt P07550).
T1 construct: endogenous in cells; host or cells: H292 cells
Kind of assay: Adrenergic β2 Mediated cAMP Production, single concentration 1 μM. Type of assay: cell-based. The following applies: NCI-H292, 1 μM compound, percentage of the maximum response generated by 1E-07M formoterol, read-out: β2 (% effect at 1 μM). In outline:
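H292 cells were plated overnight, pre-treated with 300 μM rolipram for 10 min, then exposed to compound at 1 μM final (1% DMSO) for 60 min at room temperature. cAMP in the lysates was measured by AlphaScreen against a standard curve and expressed as % of the maximal response to 1E-07M formoterol.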

The target of assay [2] is T2, human muscarinic acetylcholine M3 receptor (M3-ACh) (Homo sapiens, UniProt P20309).
T2 construct: expressed in transfected cells; host or cells: CHO-K1 (Chinese Hamster Ovary) cell membranes
T2 sequence (P20309 whole entry): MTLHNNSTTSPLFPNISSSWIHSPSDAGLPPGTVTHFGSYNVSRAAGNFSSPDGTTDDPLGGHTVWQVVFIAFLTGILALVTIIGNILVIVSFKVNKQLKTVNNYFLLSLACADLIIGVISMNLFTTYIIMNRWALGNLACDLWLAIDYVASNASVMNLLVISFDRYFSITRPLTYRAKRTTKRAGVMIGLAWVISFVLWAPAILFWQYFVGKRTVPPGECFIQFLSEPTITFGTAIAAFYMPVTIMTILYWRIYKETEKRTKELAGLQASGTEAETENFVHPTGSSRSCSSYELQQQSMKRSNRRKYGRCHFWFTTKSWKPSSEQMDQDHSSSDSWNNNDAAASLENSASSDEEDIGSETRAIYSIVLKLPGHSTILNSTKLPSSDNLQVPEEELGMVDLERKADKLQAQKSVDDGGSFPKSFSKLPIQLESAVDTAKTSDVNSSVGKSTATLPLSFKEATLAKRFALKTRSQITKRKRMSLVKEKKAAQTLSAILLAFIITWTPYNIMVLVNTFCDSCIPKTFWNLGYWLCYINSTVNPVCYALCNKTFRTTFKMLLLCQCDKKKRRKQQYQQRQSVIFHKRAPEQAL
As to the kind of experiment: Muscarinic 3 Receptor Binding Assay, % inhibition specific binding at 1 μM. The conditions noted are these: 1 μM compound, % inhibition specific [3H]-NMS binding. In a few lines:
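Competition binding of 0.1 nM [3H]NMS to membranes from CHO-K1 cells expressing human M3, SPA format, with compound at 1 μM in 20 mM HEPES pH 7.4, 5 mM MgCl2, 1% DMSO. Incubated 16 h at room temperature; non-specific binding defined by 1 μM atropine; value is % inhibition of specific binding.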

The record followed here is patent publication US8148373B2, “Compounds” (AstraZeneca AB, priority 2008, dated 2012).

T1 sequence (P07550 whole entry): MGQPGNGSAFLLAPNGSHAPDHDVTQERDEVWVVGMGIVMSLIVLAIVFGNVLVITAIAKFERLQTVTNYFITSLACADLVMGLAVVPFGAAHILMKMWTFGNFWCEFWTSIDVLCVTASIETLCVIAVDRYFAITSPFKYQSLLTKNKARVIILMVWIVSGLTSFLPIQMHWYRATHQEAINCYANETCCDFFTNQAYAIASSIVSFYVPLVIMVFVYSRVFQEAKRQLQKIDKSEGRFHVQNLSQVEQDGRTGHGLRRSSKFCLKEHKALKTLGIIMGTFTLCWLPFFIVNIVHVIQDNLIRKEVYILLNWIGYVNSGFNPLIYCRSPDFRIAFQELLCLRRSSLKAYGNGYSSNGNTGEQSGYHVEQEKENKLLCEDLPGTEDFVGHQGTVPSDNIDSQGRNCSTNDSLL

A word on the inhibition: it is the relative decrease from the control value, in per cent. A high value points to strong suppression. Regarding `O=C(Cc1cccs1)N1CCOC2(CCN(CCCCCCCCCNC[C@H](O)c3ccc(O)c4[nH]c(=O)sc34)CC2)C1` [Example 185, (R)-4-hydroxy-7-(1-hydroxy-2-(9-(4-(2-(thiophen-2-yl)acetyl)-1-oxa-4,9-diazaspiro[5.5]undecan-9-yl)nonylamino)ethyl)benzo[d]thiazol-2(3H)-one], the activation at 1 µM in assay [1] was found to be 81%. This molecule also showed an inhibition at 1 µM in assay [2] of 95%.
As for `O=C(c1csc(C2CCCC2)n1)N1CCOC2(CCN(CCOc3ccc(CNC[C@H](O)c4ccc(O)c5[nH]c(=O)sc45)cc3)CC2)C1` [Example 262, (R)-7-(2-(4-(2-(4-(2-cyclopentylthiazole-4-carbonyl)-1-oxa-4,9-diazaspiro[5.5]undecan-9-yl)ethoxy)benzylamino)-1-hydroxyethyl)-4-hydroxy-benzo[d]thiazol-2(3H)-one], the activation at 1 µM in assay [1] came out at 69%. Further, the inhibition at 1 µM in assay [2] was found to be 82%.
Regarding `Cc1ccoc1C(=O)N1CCOC2(CCN(CCCCCCCCCNC[C@H](O)c3ccc(O)c4[nH]c(=O)sc34)CC2)C1` [Example 193, (R)-4-hydroxy-7-(1-hydroxy-2-(9-(4-(3-methylfuran-2-carbonyl)-1-oxa-4,9-diazaspiro[5.5]undecan-9-yl)nonylamino)ethyl)benzo[d]thiazol-2(3H)-one], in assay [1], the activation at 1 µM was 91%. 1 µM produced 99% inhibition in assay [2].
For `O=C(CCc1c[nH]c2ccccc12)N1CCOC2(CCN(Cc3cc(F)cc(CCNC[C@H](O)c4ccc(O)c5[nH]c(=O)sc45)c3)CC2)C1` [Example 128, (R)-7-(2-(3-((4-(3-(1H-indol-3-yl)propanoyl)-1-oxa-4,9-diazaspiro[5.5]undecan-9-yl)methyl)-5-fluorophenethylamino)-1-hydroxyethyl)-4-hydroxybenzo[d]thiazol-2(3H)-one], in that order: 112% and 14%.
As for `CC(C)c1cc(C(=O)N2CCOC3(CCN(CCOc4ccc(CNC[C@H](O)c5ccc(O)c6[nH]c(=O)sc56)cc4)CC3)C2)no1` [Example 255, (R)-4-hydroxy-7-(1-hydroxy-2-(4-(2-(4-(5-isopropylisoxazole-3-carbonyl)-1-oxa-4,9-diazaspiro[5.5]undecan-9-yl)ethoxy)benzylamino)ethyl) benzo[d]thiazol-2(3H)-one], the activation at 1 µM in assay [1] turned out to be 66%. Further, the inhibition at 1 µM in assay [2] came to 32%.
For `Cc1cc(C(=O)N2CCOC3(CCN(CCCCCCCCCNC[C@H](O)c4ccc(O)c5[nH]c(=O)sc45)CC3)C2)sc1C` [Example 222, (R)-7-(2-(9-(4-(4,5-dimethylthiophene-2-carbonyl)-1-oxa-4,9-diazaspiro[5.5]undecan-9-yl)nonylamino)-1-hydroxyethyl)-4-hydroxybenzo[d]thiazol-2(3H)-one], the activation at 1 µM in assay [1] worked out at 87%. The molecule also displayed an inhibition at 1 µM in assay [2] of 91%.
For `Cc1sccc1C(=O)N1CCOC2(CCN(CCCCCCCCCNC[C@H](O)c3ccc(O)c4[nH]c(=O)sc34)CC2)C1` [Example 205, (R)-4-hydroxy-7-(1-hydroxy-2-(9-(4-(2-methylthiophene-3-carbonyl)-1-oxa-4,9-diazaspiro[5.5]undecan-9-yl)nonylamino)ethyl)benzo[d]thiazol-2(3H)-one], in that order: 85% and 91%.
In the case of `Cc1ccn(CC(=O)N2CCOC3(CCN(Cc4cc(F)cc(CCNC[C@H](O)c5ccc(O)c6[nH]c(=O)sc56)c4)CC3)C2)n1` [Example 153, (R)-7-(2-(3-fluoro-5-((4-(2-(3-methyl-1H-pyrazol-1-yl)acetyl)-1-oxa-4,9-diazaspiro[5.5]undecan-9-yl)methyl)phenethylamino)-1-hydroxyethyl)-4-hydroxybenzo[d]thiazol-2(3H)-one], in assay [1], the activation at 1 µM was found to be 98%. Moreover, the inhibition at 1 µM in assay [2] worked out at 67%.
As to `Cc1ccccc1C(=O)N1CCOC2(CCN(Cc3cc(F)cc(CCNC[C@H](O)c4ccc(O)c5[nH]c(=O)sc45)c3)CC2)C1` [Example 121, (R)-7-(2-(3-fluoro-5-((4-(2-methylbenzoyl)-1-oxa-4,9-diazaspiro[5.5]undecan-9-yl)methyl)phenethylamino)-1-hydroxyethyl)-4-hydroxybenzo[d]thiazol-2(3H)-one], in assay [1], the activation at 1 µM was found to be 85%. Also, the inhibition at 1 µM in assay [2] turned out to be 28%.
In the same order, the values of `O=C(c1ccc(-c2cnco2)cc1)N1CCOC2(CCN(Cc3cc(F)cc(CCNC[C@H](O)c4ccc(O)c5[nH]c(=O)sc45)c3)CC2)C1` [Example 159, (R)-7-(2-(3-fluoro-5-((4-(4-(oxazol-5-yl)benzoyl)-1-oxa-4,9-diazaspiro[5.5]undecan-9-yl)methyl)phenethylamino)-1-hydroxyethyl)-4-hydroxybenzo[d]thiazol-2(3H)-one] are 90% and 3%.
For the molecule `O=C(COCc1ccccc1)N1CCOC2(CCN(CCCCCCCCCNC[C@H](O)c3ccc(O)c4[nH]c(=O)sc34)CC2)C1` [Example 203, (R)-7-(2-(9-(4-(2-(benzyloxy)acetyl)-1-oxa-4,9-diazaspiro[5.5]undecan-9-yl)nonylamino)-1-hydroxyethyl)-4-hydroxybenzo[d]thiazol-2(3H)-one], the activation at 1 µM in assay [1] stood at 99%. In addition, in assay [2], the inhibition at 1 µM was 94%.
Turning to `O=C(c1ccc(-c2cc[nH]n2)cc1)N1CCOC2(CCN(Cc3cc(F)cc(CCNC[C@H](O)c4ccc(O)c5[nH]c(=O)sc45)c3)CC2)C1` [Example 148, (R)-7-(2-(3-((4-(4-(1H-pyrazol-3-yl)benzoyl)-1-oxa-4,9-diazaspiro[5.5]undecan-9-yl)methyl)-5-fluorophenethylamino)-1-hydroxyethyl)-4-hydroxybenzo[d]thiazol-2(3H)-one], in assay [1], the activation at 1 µM was 104%. The same molecule showed an inhibition at 1 µM in assay [2] of 4%.
`Cc1ccnn1CC(=O)N1CCOC2(CCN(CCCCCCCCCNC[C@H](O)c3ccc(O)c4[nH]c(=O)sc34)CC2)C1` [Example 200, (R)-4-hydroxy-7-(1-hydroxy-2-(9-(4-(2-(5-methyl-1H-pyrazol-1-yl)acetyl)-1-oxa-4,9-diazaspiro[5.5]undecan-9-yl)nonylamino)ethyl)benzo[d]thiazol-2(3H)-one]: the activation at 1 µM in assay [1] was 92%. Moreover, testing at 1 µM in assay [2] gave an inhibition of 70%.
On to `O=C(c1cc2cc(Cl)ccc2o1)N1CCOC2(CCN(Cc3cc(F)cc(CCNC[C@H](O)c4ccc(O)c5[nH]c(=O)sc45)c3)CC2)C1` [Example 182, (R)-7-(2-(3-((4-(5-chlorobenzofuran-2-carbonyl)-1-oxa-4,9-diazaspiro[5.5]undecan-9-yl)methyl)-5-fluorophenethylamino)-1-hydroxyethyl)-4-hydroxybenzo[d]thiazol-2(3H)-one], for which the activation at 1 µM in assay [1] turned out to be 88%. This molecule displayed an inhibition at 1 µM in assay [2] of 16%.
As to `O=C(Cc1ccsc1)N1CCOC2(CCN(CCCCCCCCCNC[C@H](O)c3ccc(O)c4[nH]c(=O)sc34)CC2)C1` [Example 192, (R)-4-hydroxy-7-(1-hydroxy-2-(9-(4-(2-(thiophen-3-yl)acetyl)-1-oxa-4,9-diazaspiro[5.5]undecan-9-yl)nonylamino)ethyl)benzo[d]thiazol-2(3H)-one], in assay [1], the activation at 1 µM was 88%. Testing at 1 µM in assay [2] gave an inhibition of 96%.
As for `O=C(CCc1ccccc1)N1CCOC2(CCN(CCCCCCCCCNC[C@H](O)c3ccc(O)c4[nH]c(=O)sc34)CC2)C1` [Example 187, (R)-4-hydroxy-7-(1-hydroxy-2-(9-(4-(3-phenylpropanoyl)-1-oxa-4,9-diazaspiro[5.5]undecan-9-yl)nonylamino)ethyl)benzo[d]thiazol-2(3H)-one], the activation at 1 µM in assay [1] turned out to be 92%. The molecule also came in with an inhibition at 1 µM in assay [2] of 84%.
Consider `Cc1csc(C(=O)N2CCOC3(CCN(CCOc4ccc(CNC[C@H](O)c5ccc(O)c6[nH]c(=O)sc56)cc4)CC3)C2)c1` [Example 254, (R)-4-hydroxy-7-(1-hydroxy-2-(4-(2-(4-(4-methylthiophene-2-carbonyl)-1-oxa-4,9-diazaspiro[5.5]undecan-9-yl)ethoxy)benzylamino)ethyl) benzo[d]thiazol-2(3H)-one], for which, in assay [1], the activation at 1 µM is 71%. This molecule also returned an inhibition at 1 µM in assay [2] of 92%.
As to `O=C(Cc1ccccc1)N1CCOC2(CCN(CCCCCCCCCNC[C@H](O)c3ccc(O)c4[nH]c(=O)sc34)CC2)C1` [Example 186, (R)-4-hydroxy-7-(1-hydroxy-2-(9-(4-(2-phenylacetyl)-1-oxa-4,9-diazaspiro[5.5]undecan-9-yl)nonylamino)ethyl)benzo[d]thiazol-2(3H)-one], the activation at 1 µM in assay [1] stood at 86%. In assay [2], this molecule had an inhibition at 1 µM of 95%.
For the molecule `Cc1occc1C(=O)N1CCOC2(CCN(Cc3cc(F)cc(CCNC[C@H](O)c4ccc(O)c5[nH]c(=O)sc45)c3)CC2)C1` [Example 131, (R)-7-(2-(3-fluoro-5-((4-(2-methylfuran-3-carbonyl)-1-oxa-4,9-diazaspiro[5.5]undecan-9-yl)methyl)phenethylamino)-1-hydroxyethyl)-4-hydroxybenzo[d]thiazol-2(3H)-one], the activation at 1 µM in assay [1] was determined as 95%. In assay [2], this molecule gave an inhibition at 1 µM of 41%.
With `Cc1cccc(C(=O)N2CCOC3(CCN(CCOc4ccc(CNC[C@H](O)c5ccc(O)c6[nH]c(=O)sc56)cc4)CC3)C2)n1` [Example 237, (R)-4-hydroxy-7-(1-hydroxy-2-(4-(2-(4-(6-methylpicolinoyl)-1-oxa-4,9-diazaspiro[5.5]undecan-9-yl)ethoxy)benzylamino)ethyl) benzo[d]thiazol-2(3H)-one], the activation at 1 µM in assay [1] amounted to 62%. In addition, the inhibition at 1 µM in assay [2] stood at 46%.
